Legend:
[1] = test system: patient with alcoholic hepatitis; test: Treatment of a patient with alcoholic hepatitis (Example I); type: in vivo; details: 6 mg/kg oral, daily; at the end of three weeks
Protocol: A patient with alcoholic hepatitis is admitted to a hospital complaining of nausea and upper abdominal pain. Liver function test results are total bilirubin of 4.0 mg/dl, direct bilirubin of 3.1 mg/dl, ALT of 100 IU/L, AST of 120 IU/L and prothrombin time of 15.1 seconds.
At the end of three weeks, the nausea and upper abdominal pain have resolved. Each of the blood tests has improved.

[2] = test system: patient with autoimmune hepatitis; test: Treatment of a patient with autoimmune hepatitis (Example II); type: in vivo; details: 6 mg/kg oral for two months
Protocol: The patient is a person with new onset nausea, loss of appetite and right upper quadrant tenderness. They are noted to have elevated liver chemistries. Serologic workup is notable for positive antinuclear and antismooth muscle antibodies. They are considered to have autoimmune hepatitis. Liver biopsy is consistent with this diagnosis. […] The patient is subsequently maintained on an oral dose of 6 mg/kg of the same drug.

Structure (SMILES) | blood tests (liver function tests: total bilirubin, direct bilirubin, ALT, AST, prothrombin time) [1] | nausea and upper abdominal pain [1] | symptoms (nausea, loss of appetite, right upper quadrant tenderness) [2]
NS(=O)(=O)c1ccc(-n2nc(C(F)(F)F)cc2-c2ccc(Cl)cc2)cc1 [4-[5-(4-Chlorophenyl)-3-(trifluoromethyl)-1H-pyrazol-1-yl]benzenesulfonamide] | improved | resolved | resolution of symptoms
Cc1ccc(-c2cc(C(F)(F)F)nn2-c2ccc(S(N)(=O)=O)cc2)cc1 [4-[5-(4-Methylphenyl)-3-(trifluoromethyl)-1H-pyrazol-1-yl]benzenesulfonamide] | same result |  | 
